In ChEMBL document CHEMBL6109089, “Design, synthesis and optimization of Apcin analogues as Cdc20 inhibitors for triple-negative breast cancer therapy” (Eur J Med Chem, 2025):

How the values were obtained:
SiHa = test: cells; conditions: Homo sapiens, 48 h
Description: Antiproliferative activity against human SiHa cells assessed as inhibition of cell growth measured after 48 hrs by CCK-8 method

HeLa = test: cells; conditions: Homo sapiens, 48 h
Description: Antiproliferative activity against human HeLa cells assessed as inhibition of cell growth measured after 48 hrs by CCK-8 method

MDA-MB-231 [1] = test: cells; conditions: Homo sapiens, MDA-MB-231, 48 h
Description: Antiproliferative activity against human MDA-MB-231 cells assessed as inhibition of cell growth measured after 48 hrs by CCK-8 method

MDA-MB-436 = test: cells; conditions: Homo sapiens, MDA-MB-436, 48 h
Description: Antiproliferative activity against human MDA-MB-436 cells assessed as inhibition of cell growth measured after 48 hrs by CCK-8 method

MDA-MB-231 [2] = test: Induction of apoptosis in human MDA-MB-231 cells assessed as viable cells at 300 uM incubated for 24 hrs by Annexin V-FITC/PI staining based flow cytometry analysis (reference value: 94.1%); type: functional; conditions: read-out: Activity
MCF7 = test: cells; conditions: Homo sapiens, MCF7, 48 h
Description: Antiproliferative activity against human MCF7 cells assessed as inhibition of cell growth measured after 48 hrs by CCK-8 method

MDA-MB-231 [3] = test: Induction of apoptosis in human MDA-MB-231 cells assessed as late apoptotic cells at 300 uM incubated for 24 hrs by Annexin V-FITC/PI staining based flow cytometry analysis (reference value: 0.46%); type: functional
[4] = Antiproliferative activity against rat H9c2 cells assessed as inhibition of cell growth measured after 48 hrs by CCK-8 method; type: toxicity, cell-based
[5] = biological target: Cell division cycle protein 20 homolog (Homo sapiens, UniProt Q12834); test: Binding affinity to Cdc20 (unknown origin) assessed as dissociation constant measured after 360 secs by surface plasmon resonance assay
Cell division cycle protein 20 homolog, sequence (Q12834 whole entry): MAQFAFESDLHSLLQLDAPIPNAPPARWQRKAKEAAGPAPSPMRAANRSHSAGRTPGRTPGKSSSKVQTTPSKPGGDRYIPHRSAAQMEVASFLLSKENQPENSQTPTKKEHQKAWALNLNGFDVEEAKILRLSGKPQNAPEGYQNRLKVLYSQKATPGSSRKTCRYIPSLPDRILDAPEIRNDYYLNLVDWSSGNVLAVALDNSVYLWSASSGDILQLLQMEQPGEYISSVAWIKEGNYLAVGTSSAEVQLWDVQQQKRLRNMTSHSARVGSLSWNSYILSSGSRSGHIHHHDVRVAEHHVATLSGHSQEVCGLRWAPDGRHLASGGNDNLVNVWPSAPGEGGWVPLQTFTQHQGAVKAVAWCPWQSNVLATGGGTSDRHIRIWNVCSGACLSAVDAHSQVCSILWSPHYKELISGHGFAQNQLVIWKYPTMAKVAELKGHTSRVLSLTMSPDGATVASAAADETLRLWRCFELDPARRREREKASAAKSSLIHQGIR

[6] = Antiproliferative activity against human HK-2 cells assessed as inhibition of cell growth measured after 48 hrs by CCK-8 method; type: toxicity, cell-based
[7] = Antiproliferative activity against human MCF-10A cells assessed as inhibition of cell growth measured after 48 hrs by CCK-8 method; type: toxicity, cell-based
MDA-MB-231 [8] = test: Induction of cell cycle arrest in human MDA-MB-231 cells assessed as increase in accumulation of cells at G2/M phase at 300 uM measured after 24 hrs by PI staining based flow cytometry analysis (reference value: 26.38%); type: functional
MDA-MB-231 [9] = test: Induction of apoptosis in human MDA-MB-231 cells assessed as necrotic cells at 300 uM incubated for 24 hrs by Annexin V-FITC/PI staining based flow cytometry analysis (reference value: 0.033%); type: functional
[10] = Selectivity index, ratio of IC50 for antiproliferative activity against human MCF7 cells to IC50 for antiproliferative activity against human MDA-MB-231 cells; type: cell-based
MDA-MB-231 [11] = test: Induction of apoptosis in human MDA-MB-231 cells assessed as early apoptotic cells at 300 uM incubated for 24 hrs by Annexin V-FITC/PI staining based flow cytometry analysis (reference value: 5.40%); type: functional
MDA-MB-231 [12] = test: Antitumor activity against human MDA-MB-231 cells xenografted in BALB/c nude mouse model assessed as reduction in tumor growth at 30 mg/kg, ip administered daily for 18 days by vernier caliper method relative to control; type: functional; set-up: scale not given: the % may be the effect or the level left; conditions: time 18 day
[13] = Selectivity index, ratio of IC50 for antiproliferative activity against human MCF-10A cells to IC50 for antiproliferative activity against human MDA-MB-231 cells; type: toxicity, cell-based; conditions: MCF-10A cells and MDA-MB-231 cells, read-out: Ratio IC50

## Cc1ncc([N+](=O)[O-])n1CCOC(=O)NC(Nc1nc(N)cc(Cl)n1)C(Cl)(Cl)Cl (centres undefined)
SiHa
  IC50: 39 µM
HeLa
  IC50: 45 µM
MDA-MB-231 [1]
  IC50: > 100 µM

## O=C(NC(Nc1nc(Cl)cc(Nc2ccc(C(F)(F)F)cc2)n1)C(Cl)(Cl)Cl)OCCc1ccccc1 (centres undefined)
MDA-MB-231 [1]
  IC50: 6.61 µM

## Cc1ncc(C(=O)NCCOC(=O)NC(Nc2nc(Cl)cc(Nc3ccc(C(F)(F)F)cc3)n2)C(Cl)(Cl)Cl)s1 (centres undefined)
MDA-MB-231 [1]
  IC50: 4.36 µM

## Cn1ccnc1C(=O)NCCOC(=O)NC(Nc1nc(Cl)cc(Nc2ccc(C(F)(F)F)cc2)n1)C(Cl)(Cl)Cl (centres undefined)
MDA-MB-231 [1]
  IC50: 7.22 µM

## Cc1ncc([N+](=O)[O-])n1CCOC(=O)NC(Nc1nc(Cl)cc(Nc2cccc(C#N)c2)n1)C(Cl)(Cl)Cl (centres undefined)
MDA-MB-231 [1]
  IC50: 16.2 µM

## Cc1ncc([N+](=O)[O-])n1CCOC(=O)NC(Nc1nc(N)cc(F)n1)C(Cl)(Cl)Cl (centres undefined)
SiHa
  IC50: > 100 µM
HeLa
  IC50: 65.4 µM
MDA-MB-231 [1]
  IC50: > 100 µM

## Cc1ncc([N+](=O)[O-])n1CCOC(=O)NC(Nc1nc(Cl)cc(Nc2ccccc2F)n1)C(Cl)(Cl)Cl (centres undefined)
MDA-MB-231 [1]
  IC50: 16 µM

## O=C(NC(Nc1nc(Cl)cc(Nc2ccc(C(F)(F)F)cc2)n1)C(Cl)(Cl)Cl)OCCc1cccnc1 (centres undefined)
MDA-MB-231 [1]
  IC50: 13.8 µM

## O=C(NC(Nc1nc(Cl)cc(Nc2ccc(C(F)(F)F)cc2)n1)C(Cl)(Cl)Cl)OCCNC(=O)c1csc(Cl)n1 (centres undefined)
MDA-MB-231 [1]
  IC50: 7.27 µM

## Cc1ncc([N+](=O)[O-])n1CCOC(=O)NC(Nc1ncccn1)C(Cl)(Cl)Cl (centres undefined)
MDA-MB-436
  IC50: 176 µM
MDA-MB-231 [2]
  viability at 300 µM: 59.7%
MCF7
  IC50: 292 µM
SiHa
  IC50: 203 µM
MDA-MB-231 [3]
  Activity: 0.95%
[4]
  IC50 at 48 h: 252 µM
[5]
  Kd: 236 µM
[6]
  IC50 at 48 h: 151 µM
[7]
  IC50 at 48 h: 161 µM
MDA-MB-231 [8]
  Activity: 38.8%
HeLa
  IC50: 198 µM
MDA-MB-231 [9]
  Activity: 0.7%
[10]
  Ratio IC50: 1.53
MDA-MB-231 [1]
  IC50: 192 µM
MDA-MB-231 [11]
  Activity: 38.6%
MDA-MB-231 [12]
  Activity: 53%
[13]
  selectivity ratio: 0.84

## O=C(NC(Nc1nc(Cl)cc(Nc2ccc(C(F)(F)F)cc2)n1)C(Cl)(Cl)Cl)OCc1ccccc1 (centres undefined)
MDA-MB-231 [1]
  IC50: 7.63 µM

## O=C(NC(Nc1nc(Cl)cc(Nc2ccc(C(F)(F)F)cc2)n1)C(Cl)(Cl)Cl)OCCc1ccncc1 (centres undefined)
MDA-MB-231 [1]
  IC50: 7.52 µM

## O=C(NC(Nc1nc(Cl)cc(Nc2ccc(C(F)(F)F)cc2)n1)C(Cl)(Cl)Cl)OCCNC(=O)c1cnc(Cl)s1 (centres undefined)
MDA-MB-231 [1]
  IC50: 3.89 µM

## Cc1ncc([N+](=O)[O-])n1CCOC(=O)NC(Nc1nc(Cl)cc(Nc2ccc(F)cc2)n1)C(Cl)(Cl)Cl (centres undefined)
MDA-MB-231 [1]
  IC50: 8.13 µM

## CCN(CC)c1cc(Cl)nc(NC(NC(=O)OCCn2c([N+](=O)[O-])cnc2C)C(Cl)(Cl)Cl)n1 (centres undefined)
SiHa
  IC50: 35.7 µM
HeLa
  IC50: 38.9 µM
MDA-MB-231 [1]
  IC50: 16.2 µM

## Cc1ncc([N+](=O)[O-])n1CCOC(=O)NC(Nc1nc(Cl)cc(Nc2cccc(OC(F)(F)F)c2)n1)C(Cl)(Cl)Cl (centres undefined)
MDA-MB-231 [1]
  IC50: 6.76 µM

## O=C(NC(Nc1nc(Cl)cc(Nc2ccc(C(F)(F)F)cc2)n1)C(Cl)(Cl)Cl)OCCCc1ccncc1 (centres undefined)
MDA-MB-231 [1]
  IC50: 7.27 µM

## Cc1ncc([N+](=O)[O-])n1CCOC(=O)NC(Nc1nc(Cl)cc(Nc2ccc(C#N)cc2)n1)C(Cl)(Cl)Cl (centres undefined)
MDA-MB-231 [1]
  IC50: 11 µM

## O=C(NC(Nc1nc(Cl)cc(Nc2ccc(C(F)(F)F)cc2)n1)C(Cl)(Cl)Cl)OCCc1ccccn1 (centres undefined)
MDA-MB-231 [1]
  IC50: 5.34 µM

## Cc1ncc([N+](=O)[O-])n1CCOC(=O)NC(Nc1nc(Cl)cc(Nc2ccc(OC(F)(F)F)cc2)n1)C(Cl)(Cl)Cl (centres undefined)
MDA-MB-231 [1]
  IC50: 5.65 µM

## O=C(NC(Nc1nc(Cl)cc(Nc2ccc(C(F)(F)F)cc2)n1)C(Cl)(Cl)Cl)OCCCc1ccccn1 (centres undefined)
MDA-MB-231 [1]
  IC50: 11.1 µM

## COc1cc(N)nc(NC(NC(=O)OCCn2c([N+](=O)[O-])cnc2C)C(Cl)(Cl)Cl)n1 (centres undefined)
SiHa
  IC50: 89.4 µM
HeLa
  IC50: > 100 µM
MDA-MB-231 [1]
  IC50: > 100 µM

## O=C(NC(Nc1nc(Cl)cc(Nc2ccc(C(F)(F)F)cc2)n1)C(Cl)(Cl)Cl)OCCCc1cccnc1 (centres undefined)
MDA-MB-231 [1]
  IC50: 13.8 µM

## Cc1ncc([N+](=O)[O-])n1CCOC(=O)NC(Nc1nc(Cl)cc(Nc2ccc(C(F)(F)F)cc2)n1)C(Cl)(Cl)Cl (centres undefined)
MDA-MB-436
  IC50: 4.6 µM
MCF7
  IC50: 7.42 µM
[4]
  IC50 at 48 h: 22.5 µM
[6]
  IC50 at 48 h: 10.1 µM
[7]
  IC50 at 48 h: 3.7 µM
[10]
  Ratio IC50: 1.86
MDA-MB-231 [1]
  IC50: 3.98 µM
[13]
  selectivity ratio: 0.93

## Cc1ncc([N+](=O)[O-])n1CCOC(=O)NC(Nc1nc(Cl)cc(Nc2ccccc2)n1)C(Cl)(Cl)Cl (centres undefined)
MDA-MB-436
  IC50: 13.7 µM
MCF7
  IC50: 9 µM
SiHa
  IC50: 24.4 µM
[4]
  IC50 at 48 h: 15.1 µM
[6]
  IC50 at 48 h: 18.3 µM
[7]
  IC50 at 48 h: 22.5 µM
HeLa
  IC50: 19.6 µM
MDA-MB-231 [1]
  IC50: 14.1 µM

## Cc1ncc([N+](=O)[O-])n1CCOC(=O)NC(Nc1nc(Cl)cc(N(C)C)n1)C(Cl)(Cl)Cl (centres undefined)
SiHa
  IC50: 47.4 µM
HeLa
  IC50: 70.2 µM
MDA-MB-231 [1]
  IC50: 36.4 µM

## Cc1ncc([N+](=O)[O-])n1CCOC(=O)NC(Nc1ncc(Br)c(Nc2ccc(C(F)(F)F)cc2)n1)C(Cl)(Cl)Cl (centres undefined)
MDA-MB-231 [1]
  IC50: 4.58 µM

## Cc1ncc([N+](=O)[O-])n1CCOC(=O)NC(Nc1nc(Nc2ccc(C(F)(F)F)cc2)cc(C(F)(F)F)n1)C(Cl)(Cl)Cl (centres undefined)
MDA-MB-231 [1]
  IC50: 5.23 µM

## Cc1cccc(Nc2cc(Cl)nc(NC(NC(=O)OCCn3c([N+](=O)[O-])cnc3C)C(Cl)(Cl)Cl)n2)c1 (centres undefined)
MDA-MB-231 [1]
  IC50: 7.79 µM

## Cc1ncc([N+](=O)[O-])n1CCOC(=O)NC(Nc1nc(Cl)cc(-c2ccccc2)n1)C(Cl)(Cl)Cl (centres undefined)
SiHa
  IC50: 41.4 µM
HeLa
  IC50: 33.2 µM
MDA-MB-231 [1]
  IC50: 18.5 µM

## Cc1ncc([N+](=O)[O-])n1CCOC(=O)NC(Nc1ncc(Cl)c(Nc2ccc(C(F)(F)F)cc2)n1)C(Cl)(Cl)Cl (centres undefined)
MDA-MB-231 [1]
  IC50: 4.19 µM

## O=C(NC(Nc1nc(Cl)cc(Nc2ccc(C(F)(F)F)cc2)n1)C(Cl)(Cl)Cl)OCCCc1ccccc1 (centres undefined)
MDA-MB-231 [1]
  IC50: 6.69 µM

## Cc1ncc([N+](=O)[O-])n1CCOC(=O)NC(Nc1nc(Cl)cc(Nc2cccc(C(F)(F)F)c2)n1)C(Cl)(Cl)Cl (centres undefined)
MDA-MB-231 [1]
  IC50: 6.01 µM

## Cc1ccc(Nc2cc(Cl)nc(NC(NC(=O)OCCn3c([N+](=O)[O-])cnc3C)C(Cl)(Cl)Cl)n2)cc1 (centres undefined)
MDA-MB-231 [1]
  IC50: 7.62 µM

## CNc1cc(Cl)nc(NC(NC(=O)OCCn2c([N+](=O)[O-])cnc2C)C(Cl)(Cl)Cl)n1 (centres undefined)
SiHa
  IC50: 56.6 µM
HeLa
  IC50: 72.3 µM
MDA-MB-231 [1]
  IC50: 56.7 µM

## Cc1cc(N)nc(NC(NC(=O)OCCn2c([N+](=O)[O-])cnc2C)C(Cl)(Cl)Cl)n1 (centres undefined)
SiHa
  IC50: > 100 µM
HeLa
  IC50: > 100 µM
MDA-MB-231 [1]
  IC50: > 100 µM

## Cc1ncc([N+](=O)[O-])n1CCOC(=O)NC(Nc1nc(Cl)cc(Nc2cccc(F)c2)n1)C(Cl)(Cl)Cl (centres undefined)
MDA-MB-231 [1]
  IC50: 8.67 µM

## O=C(NC(Nc1nc(Cl)cc(Nc2ccc(C(F)(F)F)cc2)n1)C(Cl)(Cl)Cl)OCCCCc1ccccc1 (centres undefined)
MDA-MB-231 [1]
  IC50: 7.21 µM
